Reference: patent publication US20260224496A1, “HIGHLY POROUS GAS-BLOWN HYDROGELS FOR DIRECT CELL ENCAPSULATION WITH HIGH CELL VIABILITY” (Syracuse University, priority 2023, published 2026)

Assays:
3T3 mouse fibroblasts = assay: IC50 values of foaming components, resazurin assay (Alamar Blue); type: cell-based; conditions: 20-minute exposure
Description: Cells were cultured in DMEM with 10% fetal bovine serum (FBS) and 1% penicillin-streptomycin (pen-strep) at 37° C. with 5% CO2. Cells were trypsinized and seeded at a density of 5,000 cells per well in a 96-well plate. […] After a 20-minute exposure, solutions were removed, and cell viability was measured compared to an untreated control using a resazurin assay (Alamar Blue) read by a plate reader. Cell viability was calculated as: […]
The blank was a well with media only and no cells.

in vitro = assay: in vitro
Description: (§1) Using IC50 values as a concentration ceiling, the cytocompatibility of citric acid, NaHCO3, and Irgacure 2959 was measured with adipose-derived MSCs at concentrations of 0.25, 1, and 0.2% (w/v) in DMEM, respectively. MSCs were seeded in 24 well plates at 2,500 cells per well. […] After incubation, cells were treated with a resazurin assay for 2 hours for cytocompatibility measurements or with Live/Dead assay stains and imaging for morphology analysis.

adipose-derived MSCs = assay: in vitro
Description: as §1

O=C(O)CC(O)(CC(=O)O)C(=O)O [Citric acid, citric acid]
IC50 (3T3 mouse fibroblasts): 0.23 wt % | viability at 1 h, 0.25 % (w/v) (in vitro): 51% | viability at 24 h, 0.25 % (w/v) (in vitro): 21%

CC(C)(O)C(=O)c1ccc(OCCO)cc1 [Irgacure 2959]
MSC viability after 24-hour recovery (adipose-derived MSCs): 99% | MSC viability after 1 hour of exposure (adipose-derived MSCs): 99%

O=C([O-])O.[Na+] [NaHCO3, sodium bicarbonate]
MSC viability after 24-hour recovery (adipose-derived MSCs; citric acid 0.25%, Irgacure 2959 0.2%, NaHCO3 1% (w/v) in DMEM, 24-hour recovery): 95% | MSC viability after 1 hour of exposure (adipose-derived MSCs; citric acid 0.25%, Irgacure 2959 0.2%, NaHCO3 1% (w/v) in DMEM, 1 hour exposure): 98%
